Experimental data published in patent publication US20020019395A1, “Indalone and benzimidazolone inhibitors of factor Xa” (priority 2000, published 2002).

Legend:
Assay type in all cases: biochemical
[1] = biological target: T1, TRYPSIN (Bos taurus, UniProt P00760); assay: trypsin protease inhibition assay
T1 construct: gene PRSS1
T1 sequence (P00760 24-246): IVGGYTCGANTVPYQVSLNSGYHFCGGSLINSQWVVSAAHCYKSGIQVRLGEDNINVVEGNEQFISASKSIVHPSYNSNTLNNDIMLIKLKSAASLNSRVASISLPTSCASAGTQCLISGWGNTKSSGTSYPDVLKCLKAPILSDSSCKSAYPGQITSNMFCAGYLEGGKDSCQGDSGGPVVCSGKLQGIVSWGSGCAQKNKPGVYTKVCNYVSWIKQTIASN

[2] = biological target: factor Xa (Homo sapiens, UniProt P00742); assay: factor Xa amidolytic assay (XA); settings: substrate S-2765, pH 7.5, room temperature
Chain of factor Xa (P00742 235-488 limits assumed): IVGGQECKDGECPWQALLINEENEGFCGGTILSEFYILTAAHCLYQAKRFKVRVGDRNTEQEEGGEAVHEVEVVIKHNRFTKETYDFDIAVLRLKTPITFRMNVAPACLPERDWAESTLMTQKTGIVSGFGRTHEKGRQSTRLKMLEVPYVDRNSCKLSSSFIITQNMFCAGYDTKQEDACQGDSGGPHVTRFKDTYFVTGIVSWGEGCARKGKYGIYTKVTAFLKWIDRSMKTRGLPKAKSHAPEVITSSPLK
Chain of factor Xa (P00742 41-179 partner limits assumed): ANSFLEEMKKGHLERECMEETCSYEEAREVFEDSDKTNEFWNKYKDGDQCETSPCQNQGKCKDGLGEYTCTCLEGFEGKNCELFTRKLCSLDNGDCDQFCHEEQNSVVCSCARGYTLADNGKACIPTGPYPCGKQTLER
Procedure: (§1) The compounds of the present invention are dissolved in buffer to give solutions containing concentrations such that assay concentrations range from about 0 to about 100 μM. In the assays for thrombin, prothrombinase and factor Xa, a synthetic chromogenic substrate is added to a solution containing test compound and the enzyme of interest and the residual catalytic activity of that enzyme is determined spectrophotometrically. The IC50 of a compound is determined from the substrate turnover. The IC50 is the concentration of test compound giving about 50% inhibition of the substrate turnover.
(§2) The factor Xa and thrombin assays were performed at room temperature, in 0.02 M Tris.HCl buffer, pH 7.5, containing 0.15 M NaCl. The rates of hydrolysis of the para-nitroanilide substrate S-2765 (Chromogenix) for factor Xa, and the substrate Chromozym TH (Boehringer Mannheim) for thrombin following preincubation of the enzyme with inhibitor for 5 minutes at room temperature, and were determined using the Softmax 96-well plate reader (Molecular Devices), monitored at 405 nm to measure the time dependent appearance of p-nitroaniline.

[3] = biological target: thrombin (Homo sapiens, UniProt P00734); assay: thrombin amidolytic assay (IIA); settings: substrate Chromozym TH, pH 7.5, room temperature
Procedure: as §1, §2

[4] = biological target: prothrombinase complex (Homo sapiens, UniProt P00742); assay: prothrombinase inhibition assay (IIASE), plasma free system; settings: factor Xa 0.5 nM, factor Va 2 nM, phospholipid, Chromozym TH
Chain of prothrombinase complex (P00742 235-488 limits assumed): as the sequence (P00742 235-488 limits assumed) above
Chain of prothrombinase complex (P00742 41-179 partner limits assumed): as the sequence (P00742 41-179 partner limits assumed) above
Chain of prothrombinase complex (P12259 29-737 partner limits assumed): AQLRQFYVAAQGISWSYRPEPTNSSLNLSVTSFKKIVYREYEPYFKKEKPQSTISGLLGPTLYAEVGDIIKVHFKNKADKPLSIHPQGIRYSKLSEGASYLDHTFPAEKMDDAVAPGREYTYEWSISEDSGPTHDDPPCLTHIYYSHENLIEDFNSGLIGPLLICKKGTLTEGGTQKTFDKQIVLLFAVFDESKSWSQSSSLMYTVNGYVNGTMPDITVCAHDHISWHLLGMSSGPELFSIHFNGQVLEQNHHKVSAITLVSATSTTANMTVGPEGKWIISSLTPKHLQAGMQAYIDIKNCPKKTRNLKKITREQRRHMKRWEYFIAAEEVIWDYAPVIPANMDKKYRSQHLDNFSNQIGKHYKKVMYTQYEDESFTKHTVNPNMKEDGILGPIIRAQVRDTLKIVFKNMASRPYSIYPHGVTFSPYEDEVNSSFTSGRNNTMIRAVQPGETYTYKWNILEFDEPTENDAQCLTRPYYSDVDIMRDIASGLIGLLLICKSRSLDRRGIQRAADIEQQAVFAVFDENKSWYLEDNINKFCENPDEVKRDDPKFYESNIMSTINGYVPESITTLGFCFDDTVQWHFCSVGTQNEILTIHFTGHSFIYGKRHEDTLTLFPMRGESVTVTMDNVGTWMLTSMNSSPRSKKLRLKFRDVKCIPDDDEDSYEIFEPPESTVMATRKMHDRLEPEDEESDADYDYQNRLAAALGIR
Chain of prothrombinase complex (P12259 1574-2224 partner limits assumed): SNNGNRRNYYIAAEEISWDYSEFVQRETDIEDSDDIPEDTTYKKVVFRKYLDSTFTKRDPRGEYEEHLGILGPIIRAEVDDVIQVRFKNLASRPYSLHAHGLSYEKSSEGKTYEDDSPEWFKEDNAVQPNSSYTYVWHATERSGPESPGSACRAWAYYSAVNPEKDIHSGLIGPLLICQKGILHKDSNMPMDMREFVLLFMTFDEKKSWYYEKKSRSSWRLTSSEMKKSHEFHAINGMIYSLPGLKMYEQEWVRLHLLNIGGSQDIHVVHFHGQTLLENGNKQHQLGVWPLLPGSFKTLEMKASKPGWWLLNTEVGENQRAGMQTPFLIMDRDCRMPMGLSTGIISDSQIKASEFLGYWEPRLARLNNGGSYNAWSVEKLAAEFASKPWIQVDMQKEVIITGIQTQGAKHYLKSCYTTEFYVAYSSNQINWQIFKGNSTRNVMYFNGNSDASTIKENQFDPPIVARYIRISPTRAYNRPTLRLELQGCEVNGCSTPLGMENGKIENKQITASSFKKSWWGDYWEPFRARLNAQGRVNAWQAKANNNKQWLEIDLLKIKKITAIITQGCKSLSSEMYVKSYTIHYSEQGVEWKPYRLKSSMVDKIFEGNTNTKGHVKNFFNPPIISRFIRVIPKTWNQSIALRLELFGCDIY
Procedure: as §1
The prothrombinase inhibition assay was performed in a plasma free system with modifications to the method described by Sinha, U. et al., Thromb. Res., 75, 427-436 (1994). Specifically, the activity of the prothrombinase complex was determined by measuring the time course of thrombin generation using the p-nitroanilide substrate Chromozym TH. The assay consists of preincubation (5 minutes) of selected compounds to be tested as inhibitors with the complex formed from factor Xa (0.5 nM), factor Va (2 nM), phosphatidyl serine:phosphatidyl choline (25:75, 20 μM) in 20 mM Tris.HCl buffer, pH 7.5, containing 0.15 M NaCl, 5 mM CaCl2 and 0.1% bovine serum albumin. Aliquots from the complex-inhibitor mixture were added to prothrombin (1 nM) and Chromozym TH (0.1 mM). The rate of substrate cleavage was monitored at 405 nm for two minutes. Eight different concentrations of inhibitor were assayed in duplicate. A standard curve of thrombin generation by an equivalent amount of untreated complex was used for determination of percent inhibition.

[5] = biological target: PLASMIN (Homo sapiens, UniProt P00747); assay: plasmin protease inhibition assay
Chain of PLASMIN (P00747 581-810 limits assumed, species assumed): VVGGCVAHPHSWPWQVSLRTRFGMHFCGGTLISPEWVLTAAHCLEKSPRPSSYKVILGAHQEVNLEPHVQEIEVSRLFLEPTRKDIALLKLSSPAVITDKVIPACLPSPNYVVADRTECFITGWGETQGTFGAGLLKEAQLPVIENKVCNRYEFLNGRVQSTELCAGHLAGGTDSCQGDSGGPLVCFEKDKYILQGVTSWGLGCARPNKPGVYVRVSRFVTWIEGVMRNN
Chain of PLASMIN (P00747 97-580 partner limits assumed, species assumed): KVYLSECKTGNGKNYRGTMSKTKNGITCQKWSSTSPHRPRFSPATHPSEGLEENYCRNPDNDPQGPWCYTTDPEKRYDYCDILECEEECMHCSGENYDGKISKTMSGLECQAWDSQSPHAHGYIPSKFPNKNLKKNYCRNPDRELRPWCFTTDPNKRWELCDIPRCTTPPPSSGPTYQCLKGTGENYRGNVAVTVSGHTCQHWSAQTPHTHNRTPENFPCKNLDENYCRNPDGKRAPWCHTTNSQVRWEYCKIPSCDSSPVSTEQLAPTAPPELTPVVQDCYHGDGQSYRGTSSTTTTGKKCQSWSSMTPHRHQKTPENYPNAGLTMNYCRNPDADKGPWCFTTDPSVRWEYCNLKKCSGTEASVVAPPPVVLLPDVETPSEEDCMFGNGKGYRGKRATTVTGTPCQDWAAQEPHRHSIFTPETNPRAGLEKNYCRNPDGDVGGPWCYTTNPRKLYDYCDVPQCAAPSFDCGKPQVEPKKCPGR

[6] = biological target: APC (Homo sapiens, UniProt P04070); assay: APC protease inhibition assay
Chain of APC (P04070 212-450 limits assumed): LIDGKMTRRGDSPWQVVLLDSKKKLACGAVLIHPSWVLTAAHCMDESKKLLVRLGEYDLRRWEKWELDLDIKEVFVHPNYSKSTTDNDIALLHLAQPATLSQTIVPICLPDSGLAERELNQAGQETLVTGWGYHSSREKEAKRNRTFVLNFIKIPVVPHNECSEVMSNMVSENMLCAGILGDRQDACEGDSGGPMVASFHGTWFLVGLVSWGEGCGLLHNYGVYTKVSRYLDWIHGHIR
Chain of APC (P04070 43-197 partner limits assumed): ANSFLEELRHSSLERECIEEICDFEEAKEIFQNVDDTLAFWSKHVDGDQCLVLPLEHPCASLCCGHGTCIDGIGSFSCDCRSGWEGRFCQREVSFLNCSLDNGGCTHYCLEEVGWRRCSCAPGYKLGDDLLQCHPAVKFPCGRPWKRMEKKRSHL

[7] = system: KALLIKREIN; assay: kallikrein protease inhibition assay
[8] = biological target: TPA (Homo sapiens, UniProt P00750); assay: TPA protease inhibition assay
Chain of TPA (P00750 36-562, species assumed): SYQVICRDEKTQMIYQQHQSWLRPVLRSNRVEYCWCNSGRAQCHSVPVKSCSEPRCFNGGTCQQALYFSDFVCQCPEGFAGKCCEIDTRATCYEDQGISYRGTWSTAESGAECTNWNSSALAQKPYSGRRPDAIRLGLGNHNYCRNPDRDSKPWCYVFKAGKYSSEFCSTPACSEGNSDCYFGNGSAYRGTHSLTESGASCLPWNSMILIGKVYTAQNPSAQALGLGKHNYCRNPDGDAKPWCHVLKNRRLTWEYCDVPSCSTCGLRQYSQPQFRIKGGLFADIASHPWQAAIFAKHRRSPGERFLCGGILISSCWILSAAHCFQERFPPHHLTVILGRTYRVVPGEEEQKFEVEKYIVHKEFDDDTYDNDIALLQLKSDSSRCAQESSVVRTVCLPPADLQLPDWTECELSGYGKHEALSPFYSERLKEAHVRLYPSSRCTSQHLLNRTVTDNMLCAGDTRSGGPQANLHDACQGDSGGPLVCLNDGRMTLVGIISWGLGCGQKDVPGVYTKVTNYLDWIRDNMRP

Compound	IC50 [1] [nM]	IC50 [2] [nM]	IC50 [3] [nM]	IC50 [4] [nM]	IC50 [5] [nM]	IC50 [6] [nM]	IC50 [7] [nM]	IC50 [8] [nM]
CCn1c(Cn2c(=O)[nH]c3ccc(OC4CCN(C(=N)N)CC4)cc32)cc2ccc(C(=N)N)cc21 [Example 18]	509	1770	302	470	–	–	–	–
CC(=N)N1CCC(Oc2ccc3c(c2)n(Cc2ccc4ccc(C(=N)N)cc4c2)c(=O)n3CC(=O)O)CC1 [Example 14]	192	8.15	–	481	6040	19300	2950	88100
CC(=N)N1CCC(Oc2ccc3c(c2)n(Cc2ccc4ccc(C(=N)N)cc4c2)c(=O)n3C(C)C)CC1 [Example 8]	349	28.6	30200	425	3500	2480	349	77800
CCn1c(Cn2c(=O)[nH]c3ccc(OC4CCN(C(C)=N)CC4)cc32)cc2ccc(C(=N)N)cc21 [Example 17]	409	14000	267	526	–	–	–	–
CC(C)n1c(=O)n(Cc2ccc3ccc(C(=N)N)cc3c2)c2cc(OC3CCN(C(=N)N)CC3)ccc21 [Example 9]	392	49.8	14900	827	2230	1850	392	92800
N=C(N)c1ccc(Cn2c(=O)[nH]c3ccc(OC4CCN(C(=N)N)CC4)cc32)cc1 [Example 1]	21800	9220	333000	–	–	99200	9540	–

These reach a lower IC50 [1]. Values come first.

IC50 [1] [nM]	IC50 [2] [nM]	IC50 [3] [nM]	IC50 [4] [nM]	IC50 [5] [nM]	IC50 [6] [nM]	IC50 [7] [nM]	IC50 [8] [nM]	Compound
163	67.1	–	4220	17000	49800	9220	169000	N=C(N)c1ccc2ccc(Cn3c(=O)n(CC(=O)O)c4ccc(OC5CCN(C(=N)N)CC5)cc43)cc2c1 [Example 15]
133	20.4	286000	22.2	8940	15900	508	101000	CC(=N)N1CCC(Oc2ccc3[nH]c(=O)n(Cc4ccc5ccc(C(=N)N)cc5c4)c3c2)CC1 [Example 4]
81.6	10.8	264000	103	4220	8120	1340	54000	CC(=N)N1CCC(Oc2ccc3c(c2)n(Cc2ccc4ccc(C(=N)N)cc4c2)c(=O)n3CC(=O)OCC(C)C)CC1 [Example 12]
55.7	27	32100	422	3670	7650	592	36100	CC(=N)N1CCC(Oc2ccc3c(c2)n(Cc2ccc4ccc(C(=N)N)cc4c2)c(=O)n3C)CC1 [Example 6]
44.1	17.8	59900	250	2710	6510	1250	42800	CC(C)COC(=O)Cn1c(=O)n(Cc2ccc3ccc(C(=N)N)cc3c2)c2cc(OC3CCN(C(=N)N)CC3)ccc21 [Example 13]
32.2	32	24500	401	2980	6420	615	31800	Cn1c(=O)n(Cc2ccc3ccc(C(=N)N)cc3c2)c2cc(OC3CCN(C(=N)N)CC3)ccc21 [Example 7]
